{
  "source": "paper PMC7370100",
  "about": "“In Vitro Assessment of the Genotoxic Hazard of Novel Hydroxamic Acid- and Benzamide-Type Histone Deacetylase Inhibitors (HDACi)” (International Journal of Molecular Sciences, 2020); for DDR Activation: key: −: no effect; 0: weak effect; +: moderate effect; ++: strong effect; +++: very strong effect as compared to untreated controls; for DSB Repair def. Cells: key: −: no effect; 0: weak effect; +: moderate effect; ++: strong effect; +++: very strong effect as compared to untreated controls; for apoptosis: key: −: no effect; 0: weak effect; +: moderate effect; ++: strong effect; +++: very strong effect as compared to untreated controls",
  "key": {"[1]": {"tested_on": "V79 hamster lung cells", "assay": "Alamar blue assay (cell viability), V79 cells", "format": "cell-based", "procedure": "(§1) V79 hamster lung cells, which are recommended in the OECD toxicology guidelines for hazard identification (i.e., cytotoxicity and genotoxicity) of chemicals, were purchased from the German Collection of Microorganisms and Cell Cultures (DSMZ, Braunschweig, Germany). They were cultured in Dulbecco´s modified Eagle medium and Ham´s F12 medium (DMEM/F12) (PromoCell, Heidelberg, Germany) containing 10% fetal calf serum at 37 °C in a humidified atmosphere containing 5% CO2. VC8 hamster cells were defective in DNA double-strand break (DSB) repair by homologous recombination (HR) due to the lack of functional BRCA2 protein [69, 70]. VC8 cells were provided by B. Kaina (Institute of Toxicology, Mainz, Germany). Nucleotide excision repair defective XPA and CSB deficient cells were also provided by B. Kaina and were described before. They were grown in DMEM containing 10% fetal calf serum. Human neuroblastoma cells (IMR-32 and SH-SY5Y) were purchased from the German Collection of Microorganisms and Cell Cultures (DSMZ, Braunschweig, Germany) and were used as a model of malignant cells. They were grown in DMEM or RPMI (Roswell park memorial institute) medium, respectively, containing 10% fetal calf serum. If not stated otherwise, HDACi were added to the exponentially growing cells and analyses were performed 6 h to 72 h later.\n(§2) Cell viability was determined using the Alamar blue assay, which reflected the mitochondrial activity. Viable cells were characterized by an effective mitochondrial metabolization of the non-fluorescent dye resazurin (Sigma, Steinheim, Germany) to fluorescent resorufin (excitation: 535 nm, emission: 590 nm). Relative viability in the untreated control was set to 100%. In addition, the Neutral red assay, which measures the integrity of lysosomal membranes, was used to monitor cytotoxicity. To this end, cells were incubated with the Neutral red solution (0.01%) in an atmosphere containing 5% CO2 for 90 min before they were fixed (1% formaldehyde/1% CaCl2). Afterwards, the Neutral red that was taken up by the cells was extracted (50% ethanol/1% of acetic acid, 15 min at room temperature (RT)) and absorbance (540 nm) was measured. If not stated otherwise, data are shown as the mean ± standard deviation (SD) of two to three independent experiments each performed in quadruplicate. Approximate IC50 (~IC50, see Supplementary Table S1) were calculated from the corresponding dose-response curves."}, "[2]": {"tested_on": "SH-SY5Y neuroblastoma cells", "assay": "Alamar blue assay (cell viability), SH-SY5Y cells", "format": "cell-based, human", "procedure": "as §1, §2"}, "[3]": {"tested_on": "IMR-32 neuroblastoma cells", "assay": "Alamar blue assay (cell viability), IMR-32 cells", "format": "cell-based, human", "procedure": "as §1, §2"}, "[4]": {"tested_on": "V79 hamster lung cells", "assay": "Neutral red assay (cytotoxicity), V79 cells", "format": "cell-based", "procedure": "as §1, §2"}, "[5]": {"tested_on": "SH-SY5Y neuroblastoma cells", "assay": "Neutral red assay (cytotoxicity), SH-SY5Y cells", "format": "cell-based, human", "procedure": "as §1, §2"}, "[6]": {"tested_on": "IMR-32 neuroblastoma cells", "assay": "Neutral red assay (cytotoxicity), IMR-32 cells", "format": "cell-based, human", "procedure": "as §1, §2"}, "[7]": {"tested_on": "V79 cells", "assay": "DNA damage response (DDR) activation by Western blot", "format": "cell-based, hamster", "procedure": "(§3) The activation of the DDR was investigated by Western blot analysis. To this end, total cell extracts were obtained by lysing an equal number of cells in Roti®-Load buffer (Carl Roth GmbH (Karlsruhe, Germany)) (5 min, RT). After sonication (EpiShear™ Probe sonicator, Active Motif, La Hulpe, Belgium), proteins were denatured by heating (5 min, 95 °C) and separated by SDS-PAGE (6% or 12.5% gel). Proteins were transferred onto a nitrocellulose membrane (GE Healthcare, Little Chalfont, UK) via the Protean Mini Cell System (BioRad (München, Germany)). The membrane was blocked with 5% non-fat milk in TBS/0.1% Tween 20 (MERCK, Darmstadt, Germany) (2 h, RT) and incubated with the corresponding primary antibody (1:1000, overnight, 4 °C). After washing with TBS/0.1% Tween 20, the secondary (peroxidase-conjugated) antibody was added (1:2000, 2 h, RT). The Fusion FX7 imaging system (PeqLab, Erlangen, Germany) was used for visualization of the bound antibodies. The following primary antibodies were used: Anti-Ser15 phosphorylated protein 53 (p-p53), anti-Talin-1, anti-Ser 345 checkpoint kinase 1 (p-Chk1), anti-cleaved caspase 3 and 7 (Cell Signaling, Beverly, MA, USA), anti-Ser824 phosphorylated Krüppel-associated box domain (KRAB)-associated protein-1 (p-Kap1), anti-Ser1981 phosphorylated ataxia telangiectasia mutated (pATM) and anti-Thr68 phosphorylated checkpoint kinase-2 (p-Chk2) (both Abcam, Cambridge, MA, USA), anti-Ser139 phosphorylated histone H2AX (γH2AX, Millipore, Billerica, MA, USA), and anti-β-actin (Santa Cruz, CA, USA). As secondary antibodies, horseradish peroxidase-conjugated secondary antibodies goat anti-mouse IgG and mouse anti-rabbit IgG (Rockland, Limerick, PA, USA) (2 h, RT) were used."}, "[8]": {"tested_on": "V79 cells", "assay": "Cell cycle distribution / SubG1 fraction by flow cytometry", "format": "cell-based, hamster", "details": "24 h, in words", "procedure": "For flow cytometry-based analysis of cell cycle distribution, cells were trypsinized and combined with floating cells present in the medium. Following fixation with ice-cold ethanol (80%) (≥1 h, −20 °C), cells were pelleted (1000× g, 10 min, 4 °C) and suspended in phosphate-buffered saline (PBS). DNase-free RNase A (Serva, Heidelberg, Germany) was added (2 μg/mL, 1 h at RT). Nuclei were stained with propidium iodide (36.7 μg/mL Sigma, Steinheim, Germany) and analysis was performed using BD Accuri™C6 flow cytometer (BD, Franklin Lakes, NJ, USA)."}, "[9]": {"tested_on": "V79 cells", "assay": "Caspase-3/-7 cleavage by Western blot (apoptosis)", "format": "cell-based, hamster", "procedure": "as §3"}, "[10]": {"tested_on": "VC8 hamster cells (BRCA1/2 defect)", "assay": "Viability of DSB repair defective VC8 versus wild-type V79 cells (Alamar blue)", "format": "cell-based", "details": "summary grade, V79 versus VC8", "procedure": "as §1, §2"}, "[11]": {"tested_on": "V79 cells", "assay": "Micronucleus assay", "experimental": "We analyzed the frequency of micronuclei in binucleated cells, as described [86]. Briefly, logarithmically growing cells were treated with cytochalasin B (3 µg/m) for 24 h. After fixation with formaldehyde (3.7% in PBS, 20 min, RT) and washing with PBS, cells were permeabilized using precooled methanol (20 min, −20 °C.) After washing with PBS and rinsing the cell layer with PBS containing Triton X100 (PBST; 0.3% Triton X100 in PBS), DNA was stained by DAPI (4´,6-diamino-2-phenylindole) and the number of micronuclei was evaluated by fluorescence microscopy. Data shown are the mean ± SEM of three independent experiments with ≥1000 binucleated cells evaluated per experimental condition."}, "[12]": {"tested_on": "V79 cells", "assay": "Alkaline comet assay (DNA strand breaks)", "details": "for Mean (% DNA in tail): untreated control 16.8", "experimental": "The formation of DNA strand breaks and apurinic/apyrimidinic sites was monitored employing the alkaline comet assay [87], which is part of the OECD guideline of in vivo genotoxicity testings and detects DNA strand breaks (DNA single- and double-strand breaks) and alkali-labile sites [87]. Briefly, after aspiration of the medium and trypsinization, cells were mixed with 0.5% melting agarose and transferred onto agarose-coated (1.5%) slides. After lysis in alkaline buffer (pH 10) (1 h, 4 °C, light protection) and unwinding of the DNA in precooled lysis buffer (pH >13) (20 min, 4 °C, light protection), electrophoresis was performed (electric current: 300 mA constant; 1 V/cm). After neutralization in salt buffer (pH 7.5) and staining with propidium iodide solution (50 µg/mL), comets were evaluated by fluorescence microscopy. Quantification of migrated DNA was performed with TriTek Comet Score™ software Version 1.5, evaluating ≥50 cells per condition (blinded assessment). […] Fold increase in tail intensities of treated cells were calculated by relating the % DNA in tail of treated cells to that of the corresponding untreated controls, which were set to 1.0 (see Figure 2B)."}, "[13]": {"details": "24 h, approximate IC50, read-out: IC50 - 24 h Treatment, SH-SY5Y"}, "[14]": {"details": "72 h, approximate IC50, read-out: IC50 - 72 h Treatment, SH-SY5Y"}, "[15]": {"details": "24 h, approximate IC50, read-out: IC50 - 24 h Treatment, IMR-32"}, "[16]": {"details": "72 h, approximate IC50, read-out: IC50 - 72 h Treatment, IMR-32"}},
  "data": [
    {"smiles": "Nc1ccc(F)cc1NC(=O)c1ccc(CONC(=O)C=Cc2cccnc2)cc1", "note": "[MPK77]", "values": [
      {"measurement": "IC50", "setting": "[1]; V79, 24 h after drug treatment (values match Alamar blue data of Table S1), read-out: Viability (IC50) 24 h", "value": "> 50", "unit": "µM"},
      {"measurement": "IC50", "setting": "[1]; V79, 72 h after drug treatment (values match Alamar blue data of Table S1), read-out: Viability (IC50) 72 h", "value": 50, "unit": "µM"},
      {"measurement": "less cytotoxic to non-malignant V79 cells than to malignant neuroblastoma cells (IC50 based)", "setting": "[1]; selection criterion, IC50 of Table S1", "value": "≥ 10", "unit": "fold"},
      {"measurement": "IC50", "setting": "[2]; [13]", "value": 33, "unit": "µM"},
      {"measurement": "IC50", "setting": "[2]; [14]", "value": 17, "unit": "µM"},
      {"measurement": "IC50", "setting": "[3]; [15]", "value": 3, "unit": "µM"},
      {"measurement": "IC50", "setting": "[3]; [16]", "value": 2, "unit": "µM"},
      {"measurement": "IC50", "setting": "[4]; 24 h, approximate IC50, read-out: IC50 - 24 h Treatment, V79", "value": "> 50", "unit": "µM"},
      {"measurement": "IC50", "setting": "[4]; 72 h, approximate IC50, read-out: IC50 - 72 h Treatment, V79", "value": 35, "unit": "µM"},
      {"measurement": "IC50", "setting": "[5]; [13]", "value": "> 50", "unit": "µM"},
      {"measurement": "IC50", "setting": "[5]; [14]", "value": 23, "unit": "µM"},
      {"measurement": "IC50", "setting": "[6]; [15]", "value": 9, "unit": "µM"},
      {"measurement": "IC50", "setting": "[6]; [16]", "value": 3, "unit": "µM"},
      {"measurement": "activation of DDR factors (γH2AX, p-p53, p-Chk1, p-Chk2, p-Kap1 protein levels)", "setting": "[7]; V79, Western blot, in words", "value": "failed to provoke a clear increase in γH2AX protein level"},
      {"measurement": "DDR Activation", "setting": "[7]; summary grade, V79", "value": "−"},
      {"measurement": "percentage of V79 cells in the SubG1 fraction", "setting": "[8]", "value": "neither induced cell death as reflected by an increase in the SubG1 population"},
      {"measurement": "activation of caspase-3 and -7", "setting": "[9]; 10 µM, 24 h, V79, in words", "value": "nor did they activate the executor caspases-3 and -7"},
      {"measurement": "Apoptosis", "setting": "[9]; summary grade, calculated on the basis of caspase-3,-7 cleavage and SubG1 population, V79", "value": "−"},
      {"measurement": "DSB Repair def. Cells", "setting": "[10]", "value": "+"},
      {"measurement": "frequency of micronuclei", "setting": "[11]; 24 h, V79, in words", "value": "slight but significant increase in the frequency of micronuclei"},
      {"measurement": "Micronucl. Assay", "setting": "[11]; summary grade, V79", "value": "+"},
      {"measurement": "Mean (% DNA in tail)", "setting": "[12]; 10 µM, 24 h, V79", "value": 34.0, "unit": "% DNA in tail"},
      {"measurement": "Mean (% DNA in tail)", "setting": "[12]; 50 µM, 24 h, V79", "value": 48.1, "unit": "% DNA in tail"},
      {"measurement": "Mean (% DNA in tail)", "setting": "[12]; 100 µM, 24 h, V79", "value": 35.5, "unit": "% DNA in tail"},
      {"measurement": "DNA strand breaks (comet assay)", "setting": "[12]; 24 h, V79, in words", "value": "significant increase in DNA strand breaks at all concentrations tested"},
      {"measurement": "Comet Assay", "setting": "[12]; summary grade, V79", "value": "+"}
    ]}
  ]
}
